Values of other authors as cited in US5972375A, “Polyvinyl alcohol compositions prepared by crosslinking in a freezing step” (Implico BV, priority 1992, dated 1999).
Like-named read-outs stand apart in the source and are kept apart here.

What was measured:
[1] = system: Rat
[2] = system: Rat; remark: listed apart in the source
[3] = system: Mouse
[4] = system: Dog
[5] = system: Primate

## CC(C)=O [Acetone]
[1]; oral
  Oral absorption LD50: 9800 mg/kg

## CN(C)C=O [DMS, Dimethylformamide]
[1]; oral
  Oral absorption LD50: 2800 mg/kg

## C[S+](C)[O-] [DMSO, dimethyl sulphoxide]
[2]; 24 hr
  Inhalation, non-lethal at: 2900 mg/m^3
[2]; 40 hr
  Inhalation, non-lethal at: 2000 mg/m^3
[2]; intravenous
  Intravenous route LD50: 5.4 g/kg of Body weight
[2]; percutaneous (undiluted)
  Percutaneous route LD50: 40 g/kg of Body weight
[3]
  Percutaneous route LD50: 50 g/kg of Body weight
[4]; intravenous
  Intravenous route LD50: 2.5 g/kg of Body weight
[4]; oral
  Oral route LD50: > 10 g/kg of Body weight
[4]; percutaneous
  Percutaneous route LD50: > 11 g/kg of Body weight
[5]; intravenous
  Intravenous route LD50: 4 g/kg of Body weight
[5]; oral
  Oral route LD50: > 4 g/kg of Body weight
[5]; percutaneous
  Percutaneous route LD50: > 11 g/kg of Body weight
[1]; oral
  Oral absorption LD50: 19700 mg/kg

## CCO [Ethanol]
[1]; in vivo, po
  Oral absorption LD50: 7100 mg/kg

## OCC(O)CO [Glycerol]
[1]; in vivo, po
  Oral absorption LD50: 12600 mg/kg

## CN1CCCC1=O [N-Methylpyrrolidone]
[1]; oral
  Oral absorption LD50: 4200 mg/kg
